TGI data for 13 compounds are collected here from PubChem BioAssay (NCI).

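Tested at 5 concentrations; 48 h exposure; 96-well plates; endpoints linearly interpolated, else capped at highest concentration. TGI is the concentration that stops growth completely.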

Some test systems named below: HCC-2998 colon; OVCAR-3 ovarian; CAKI-1 renal; IGROV1 ovarian; NCI-H460 lung; MCF7 breast; K-562 leukemia; UO-31 renal; RXF 393 renal; KM12 colon.
Assay in all cases: NCI anticancer screen, dose series, 48 h

On to `C[C@H]1[C@H](C)CC[C@]2(C(=O)OC3OC(CO)C(O)C(O)C3O)CC[C@]3(C)C(=CC[C@@H]4[C@@]5(C)C[C@H]6OC(=O)c7cc(O)c(O)c(O)c7-c7c(cc(O)c(O)c7O)C(=O)O[C@@H]6C(CO)(CO)[C@@H]5CC[C@]43C)[C@H]12` (some centres undefined), for which the TGI in the assay on HCC-2998 colon was above 100 µM; in the assay with OVCAR-3 ovarian, above 71.5 µM; in the assay on CAKI-1 renal it was above 84.1 µM; in the assay with IGROV1 ovarian, above 100 µM; in the assay on NCI-H460 lung it was above 100 µM; in the assay on MCF7 breast, 38.5 µM. Also, the TGI in the assay on K-562 leukemia, with UO-31 renal, with RXF 393 renal and with KM12 colon was above 100 µM in each case.

Regarding `Cc1cc(NS(=O)(=O)c2ccc(NC(NC(=O)C(C(F)(F)F)C(F)(F)F)(C(F)(F)F)C(F)(F)F)cc2)no1`, the TGI in the assay with HCC-2998 colon, in the assay with OVCAR-3 ovarian, in the assay on CAKI-1 renal, in the assay on IGROV1 ovarian, in the assay with NCI-H460 lung and with MCF7 breast was above 100 µM each time. Moreover, the TGI in the assay on K-562 leukemia, in the assay with UO-31 renal, in the assay on RXF 393 renal and in the assay on KM12 colon was above 100 µM throughout.

On to `O=c1c2ccccc2sc2ccccc12`, for which the TGI with HCC-2998 colon, in the assay with OVCAR-3 ovarian, in the assay on CAKI-1 renal, with IGROV1 ovarian, in the assay with NCI-H460 lung and with MCF7 breast was above 100 µM each time. In addition, the TGI in the assay with K-562 leukemia, in the assay with UO-31 renal, in the assay with RXF 393 renal and in the assay on KM12 colon was above 100 µM in each case.

`CCN(CC)CCO/N=C1\CC[C@H]2[C@@H]3CCc4cc(OC)ccc4[C@H]3CC[C@]12C`: the TGI with HCC-2998 colon stood at 3.33 µM; in the assay on OVCAR-3 ovarian, 15.5 µM; in the assay with CAKI-1 renal it was 2.13 µM; in the assay with IGROV1 ovarian it was 10.2 µM; in the assay on NCI-H460 lung, 2.15 µM; in the assay on MCF7 breast, 9.49 µM. Moreover, the TGI with K-562 leukemia was 2.53 µM; in the assay on UO-31 renal, 7.77 µM; with RXF 393 renal, 3.92 µM; with KM12 colon, 5.86 µM.

As to `O=S1(=O)c2cnccc2NC(=NCc2ccccc2)N1c1ccccc1`, the TGI with HCC-2998 colon, with OVCAR-3 ovarian, with CAKI-1 renal, in the assay on IGROV1 ovarian, in the assay with NCI-H460 lung and with MCF7 breast was above 100 µM throughout. The TGI in the assay on K-562 leukemia, in the assay on UO-31 renal, with RXF 393 renal and in the assay on KM12 colon was above 100 µM in each case.

In the case of `CN(C)c1cccc2c1C(=O)C=CC21c2ccc(N(C)C)c3c(N(C)C)ccc(c23)C(c2ccccc2)C1c1ccccc1` (centres undefined), the TGI with HCC-2998 colon was 45.6 µM; in the assay on OVCAR-3 ovarian it was 31.2 µM; in the assay with CAKI-1 renal it was 17.2 µM; with IGROV1 ovarian it was 29.3 µM; with NCI-H460 lung, 61.5 µM; with MCF7 breast, 36.9 µM. For the same compound, the TGI was above 100 µM in the assay on K-562 leukemia, 12.2 µM with UO-31 renal, 36.3 µM with RXF 393 renal and 31.3 µM in the assay on KM12 colon.

As for `CCOC(=O)C1CCC(=O)N1C(=O)c1ccccc1Cl` (centres undefined), the TGI in the assay with HCC-2998 colon, with OVCAR-3 ovarian, with CAKI-1 renal, with IGROV1 ovarian, in the assay on NCI-H460 lung and in the assay with MCF7 breast was above 100 µM in each case. Besides, the TGI with K-562 leukemia, with UO-31 renal, with RXF 393 renal and in the assay with KM12 colon was above 100 µM each time.

For the compound `O=C1C2=Nc3ccccc3C(O)(C(=O)O)N2c2ccccc21` (centres undefined), the TGI is above 100 µM with HCC-2998 colon; 58.5 µM in the assay on OVCAR-3 ovarian; above 100 µM in the assay with CAKI-1 renal; above 100 µM in the assay with IGROV1 ovarian; 39.3 µM with NCI-H460 lung; 46.8 µM with MCF7 breast. The TGI in the assay with K-562 leukemia, with UO-31 renal, in the assay on RXF 393 renal and in the assay with KM12 colon was above 100 µM each time.

For the compound `CCNc1ncnc2sc(SCc3ccccc3)nc12`, the TGI with HCC-2998 colon, in the assay with OVCAR-3 ovarian, in the assay on CAKI-1 renal, in the assay with IGROV1 ovarian, in the assay on NCI-H460 lung and in the assay with MCF7 breast was above 100 µM in each case. The TGI in the assay with K-562 leukemia, in the assay with UO-31 renal, with RXF 393 renal and with KM12 colon was above 100 µM each time.

For the compound `COc1nc2c(N3CCCC3)nc(N3CCNCC3)nc2nc1NCc1ccccc1`, the TGI came out at 2.79 µM in the assay on HCC-2998 colon; 2.42 µM in the assay on OVCAR-3 ovarian; 8.8 µM with CAKI-1 renal; 8.8 µM with IGROV1 ovarian; 4.91 µM in the assay on NCI-H460 lung; 3.46 µM in the assay on MCF7 breast. In addition, the TGI in the assay on K-562 leukemia turned out to be 3.58 µM; with UO-31 renal, 2.85 µM; in the assay with RXF 393 renal, 2.73 µM; in the assay with KM12 colon, 4.68 µM.

With `COc1ccc(N2C(=O)C3c4[nH]c5ccccc5c4C4CCCCCCCCCC4C3C2=O)cc1` (centres undefined), the TGI in the assay on HCC-2998 colon, with OVCAR-3 ovarian, in the assay on CAKI-1 renal, in the assay with IGROV1 ovarian, in the assay with NCI-H460 lung and in the assay on MCF7 breast was above 10 µM throughout. Moreover, the TGI in the assay on K-562 leukemia, with UO-31 renal, in the assay with RXF 393 renal and in the assay on KM12 colon was above 10 µM throughout.

On to `C[C@H]1OC(=O)[C@@H]2N=NN(Cc3ccccc3)[C@H]12`, for which the TGI in the assay on HCC-2998 colon, in the assay with OVCAR-3 ovarian, in the assay on CAKI-1 renal, in the assay on NCI-H460 lung, with MCF7 breast and in the assay on K-562 leukemia was above 100 µM throughout. The TGI in the assay with UO-31 renal, in the assay on RXF 393 renal and in the assay with KM12 colon was above 100 µM in each case.

Turning to `O=C(CC(=O)Nc1ccccc1)NNC(c1cc(N=Nc2ccc(Br)cc2)ccc1O)P(O)O` (centres undefined), the TGI with HCC-2998 colon, in the assay with OVCAR-3 ovarian, in the assay with CAKI-1 renal, in the assay on IGROV1 ovarian, in the assay on NCI-H460 lung and with MCF7 breast was above 10 µM in each case. Moreover, the TGI in the assay with K-562 leukemia, in the assay on UO-31 renal, with RXF 393 renal and with KM12 colon was above 10 µM in each case.
